Experimental data: US20170319572A1, “COMBINATION DRUG TREATMENT FOR HEPATITIS C INFECTION” (JANSSEN PHARMACEUTICALS, INC., priority 2015, published 2017)
“Also recorded” adds a separate entry of the source.

Assays:
[1] = Phase 2a open-label combination study, pharmacokinetics and safety; type: in vivo, human; settings: for change of exposure on reducing SMV dosing from 100 mg to 75 mg QD: in vivo
Protocol: A randomized, Phase 2a, open-label study was carried out to evaluate the safety, pharmacokinetics and efficacy of the combination of Compound (III), Odalasvir and Simeprevir in Genotype 1 treatment-naïve subjects with chronic hepatitis C. Other treatment-naïve subjects included Genotype 2, 3, 4, 5 and 6. The aim of the study was to determine the efficacy, pharmacokinetics (PK), and safety of Compound (III)+Odalasvir±SMV in HCV-infected subjects. […] Efficacy, PK and safety evaluations were conducted during and through 24 weeks post dosing. Up to 15 cohorts were enrolled; data was generated from cohorts that have completed dosing.

[2] = Drug-drug interaction study in humans (Phase-1, open-label, two-group, fixed-sequence, PK); settings: for increase of exposure caused by Odalasvir: co-administration of Odalasvir; for increase of exposure caused by SMV: co-administration of SMV
Protocol: A drug-drug interaction study (DDI) study is a study designed to investigate whether a drug alters the pharmacokinetics of another drug or drugs or their metabolites.
Compound (III)—Subjects received 800 mg of Compound (III) once daily from Days 1-3, Days 11-13, and Days 21-23. PK blood samples for determination of Compound (III) and metabolite concentrations were collected in reference to the Day 3, Day 13, and Day 23 doses.
Simeprevir—Subjects received 150 mg of Simeprevir (SMV) once daily from Days 4-23. PK blood samples for determination of SMV concentrations were collected in reference to the Day 10, Day 13, Day 20, and Day 23 doses.
Odalasvir—Subjects received a loading dose of 150 mg on Day 14, and 50 mg of Odalasvir once daily from Days 15-23. PK blood samples for determination of Odalasvir concentrations were collected in reference to the Day 20 and Day 23 doses.
Compound (III)—Subjects received 800 mg of Compound (III) once daily from Days 1-3, Days 11-13 and Days 21-23. PK blood samples for determination of Compound (III) and metabolite concentrations were collected in reference to the Day 3, Day 13, and Day 23 doses.
Simeprevir—Subjects receive 150 mg of SMV once daily from Days 4-23. PK blood samples for determination of SMV concentrations were collected in reference to the Day 20 and Day 23 doses.
Odalasvir—Subjects receive a loading dose of 150 mg on Day 4, and 50 mg of Odalasvir once daily from Days 5-23. PK blood samples for determination of Odalasvir concentrations were collected in reference to the Day 10, Day 13, Day 20, and Day 23 doses.
This drug-drug interaction study was intended to assess the safety and tolerability of the described drug combinations at pre-defined time points throughout the study. Study completion/follow-up visit(s) were performed 7 and 28 days after completion of the last study assessment.
A primary objective was to evaluate the effect of multiple oral doses of Odalasvir (alone), Simeprevir (alone), and Odalasvir and Simeprevir on the multiple oral dose PK of Compound (III) (and certain metabolites thereof, such as the major metabolites in systemic circulation) in healthy volunteers. Other objectives were to evaluate the safety and tolerability of multiple oral doses of Compound (III) when administered alone and in combination with single and multiple oral doses of Odalasvir and/or Simeprevir in healthy volunteers; to determine the potential effect of Compound of Compound (III) and/or Odalasvir on the steady-state PK of Simeprevir in healthy volunteers; to determine the potential effect of Compound of Compound (III) and/or Simeprevir on the steady state PK of Odalasvir in healthy volunteers.
Various other PK parameters were estimated including: Clast, t1/2, Tmax, Tlast, CL/F, Vz/F, and λz.
The following daily doses were employed:
Odalasvir: 150 mg loading dose; 50 mg for the remainder of the study period.

[3] = target: Pgp (Homo sapiens, UniProt P08183); settings: cited from earlier work
Chain of Pgp (P08183 whole entry): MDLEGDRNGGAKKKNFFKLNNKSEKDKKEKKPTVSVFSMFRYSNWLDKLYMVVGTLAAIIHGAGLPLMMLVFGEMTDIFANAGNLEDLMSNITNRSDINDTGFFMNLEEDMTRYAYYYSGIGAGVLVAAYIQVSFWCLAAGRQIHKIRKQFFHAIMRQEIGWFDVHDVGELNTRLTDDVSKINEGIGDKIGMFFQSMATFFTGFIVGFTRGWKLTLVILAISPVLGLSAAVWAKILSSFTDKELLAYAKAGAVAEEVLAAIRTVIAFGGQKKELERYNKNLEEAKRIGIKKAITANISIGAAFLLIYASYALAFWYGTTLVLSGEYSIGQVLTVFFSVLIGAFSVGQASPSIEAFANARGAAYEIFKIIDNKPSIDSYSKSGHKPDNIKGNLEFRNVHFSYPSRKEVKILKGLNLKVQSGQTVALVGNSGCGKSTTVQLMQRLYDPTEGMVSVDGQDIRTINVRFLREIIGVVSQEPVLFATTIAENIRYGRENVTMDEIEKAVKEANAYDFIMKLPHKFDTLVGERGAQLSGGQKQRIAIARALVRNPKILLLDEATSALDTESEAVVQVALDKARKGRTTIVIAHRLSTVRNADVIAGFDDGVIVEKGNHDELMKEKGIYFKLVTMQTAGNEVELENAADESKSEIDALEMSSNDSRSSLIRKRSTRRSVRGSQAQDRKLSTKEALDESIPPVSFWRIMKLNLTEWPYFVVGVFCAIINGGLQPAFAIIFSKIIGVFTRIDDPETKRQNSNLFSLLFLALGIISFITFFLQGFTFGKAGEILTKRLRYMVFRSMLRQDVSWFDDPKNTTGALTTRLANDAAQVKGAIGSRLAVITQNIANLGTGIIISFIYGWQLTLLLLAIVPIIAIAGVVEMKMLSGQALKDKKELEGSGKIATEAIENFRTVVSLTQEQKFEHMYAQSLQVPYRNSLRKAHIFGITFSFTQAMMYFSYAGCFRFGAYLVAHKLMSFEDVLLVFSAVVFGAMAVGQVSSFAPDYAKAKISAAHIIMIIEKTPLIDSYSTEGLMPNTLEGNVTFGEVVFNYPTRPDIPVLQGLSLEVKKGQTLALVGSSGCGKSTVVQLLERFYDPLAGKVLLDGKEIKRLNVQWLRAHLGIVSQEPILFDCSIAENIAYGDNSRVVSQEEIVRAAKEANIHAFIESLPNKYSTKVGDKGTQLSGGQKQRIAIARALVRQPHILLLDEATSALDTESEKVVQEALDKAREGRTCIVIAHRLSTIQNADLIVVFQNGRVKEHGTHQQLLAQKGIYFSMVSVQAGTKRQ

[4] = tested on: CYP (any CYP); test: CYP inhibition; settings: on any CYP
[5] = SMV co-administered with Digoxin (a pgp-substrate); cited from earlier work
[6] = tested on: NTCP; settings: printed: other OATPs NTCP; read-out: NTCP inhibition IC50; cited from earlier work
[7] = SMV co-administered with Rosuvastatin (substrate of OATPs & BCRP); cited from earlier work

| Compound | change of exposure on increasing Compound (III) dose from 400 to 800 mg ([1]; HCV patients) | increase of exposure caused by Odalasvir ([2]; DDI study) | increase of exposure caused by SMV ([2]; DDI study) | in vitro inhibition of Pgp [3] | CYP inhibition potential [4] | increase in exposure of Digoxin [5] | observed exposure in Cohort 1 / group (i) ([1]; Compound (III) 400 mg, ODV 50 mg QD, SMV 100 mg QD) | change of exposure on reducing SMV dosing from 100 mg to 75 mg QD [1] | change of exposure on reducing SMV dosing from 100 mg to 75 mg QD ([1]; listed as Simeprevir) | IC50 [6] | increase in Rosuvastatin exposure [7] | increase of exposure, effect of the three Compounds ([2]; DDI study, Compound (III) + SMV + Odalasvir together) | effect of Compound (III) on exposure/bioavailability ([2]; DDI study, co-administration of Compound (III)) | increase of exposure in the combination ([2]; human in vivo study (Example 1), three drugs combined) | increase of bioavailability by ODV ([2]; human subjects) |
| --- | --- | --- | --- | --- | --- | --- | --- | --- | --- | --- | --- | --- | --- | --- | --- |
| C[C@]1(O)[C@H](n2ccc(=O)[nH]c2=O)O[C@](F)(CO)[C@H]1O [Compound A-1] | less than proportionally | 1.5 × | no apparent effect | – | – | – | – | – | – | – | – | – | – | – | – |
| C[C@H](NP(=O)(O)OC[C@@]1(F)O[C@@H](n2ccc(=O)[nH]c2=O)[C@](C)(O)[C@@H]1O)C(=O)O [Compound A-3] | – | 2.6 × | 1.6 × | – | – | – | – | – | – | – | – | – | – | – | – |
| COc1ccc2c(O[C@@H]3C[C@H]4C(=O)N[C@]5(C(=O)NS(=O)(=O)C6CC6)C[C@H]5/C=C\CCCCN(C)C(=O)[C@@H]4C3)cc(-c3nc(C(C)C)cs3)nc2c1C [SMV, Simeprevir, reference compound] | – | 1.6 × | – | strong/moderate in vitro inhibition | limited | 35% | higher than anticipated | decreased SMV exposure less than proportionally | decreased Simeprevir exposure less than proportionally | 2200 nM | 3 fold | 1.6 × | no apparent effect; also recorded: does not alter the bioavailability | 1.6 times | 1.6 fold |
